Measured values taken from US20240408114A1, “METHODS FOR PREVENTING AND TREATING ACUTE KIDNEY INJURY” (The Johns Hopkins University, priority 2021, published 2024).

Experiments:
glutaminase = experiment: Glutaminase activity in post-ischemic kidney tissues; format: in vivo, mouse; conditions: post-ischemic kidney tissues at 24 h after IRI; JHU083 1.83 mg/kg i.p. every other day; P=0.008
Procedure: To confirm that JHU083 suppressed glutamine-related enzymes in kidneys, glutaminase activities were measured in post-ischemic kidney tissues at 24 h after IRI.
(§1) Glutamine antagonist, JHU083 was synthesized as previously described, Rais et al., 2016, and dissolved in 50 mM […] 4-(2-hydroxyethyl)-1-piperazineethanesulfonic acid (HEPES) buffered 0.9% saline. Aliquot stocks were stored at −80° C. and thawed right before injection. Before the IRI surgery or cisplatin injection, mice were administered 1.83 mg/kg JHU083 (equivalent to 1 mg/kg DON) or vehicle (50 mM HEPES buffered 0.9% saline) every other day via intraperitoneal injection. Following 4 consecutive dosages, mice underwent IRI surgery or cisplatin injection. The last additional dose was given at 24 h after IRI or cisplatin injection. This dosage regimen was chosen based on efficiency and toxicity data from a previous study. Hollinger et al., 2020.
Glutaminase activity measurements in kidney samples were adapted from previously described protocols. Engler et al., 2002. […] [^3H]-Glutamate, the reaction product, was then eluted with 0.1 N HCl and analyzed for radioactivity using Perkin Elmer's TopCount instrument in conjunction with their 96-well LumaPlates. […]

splenic T cells = experiment: In vitro hypoxia/reoxygenation of CD3/CD28 stimulated splenic T cells; format: cell-based, mouse
Procedure: In vitro studies were performed to evaluate the effect of glutamine blockade on activated T cells under hypoxia followed by reoxygenation. Splenic T cells (CD45^+, TCR αβ^+) were isolated and cultured using media containing 0.25 μM, 0.5 μM, or 1 μM of JHU083 or vehicle. After 24 h from the culture under CD3/CD28 stimulation, cells were exposed to hypoxia for 24 h followed by reoxygenation.
Kidney T cells were isolated using FACS. Briefly, single-cell suspension of KMNCs was preincubated with anti-CD16/CD32 Fc block (S17011E, BioLegend) stained in Cell Staining Buffer (BioLegend) with fluorochrome-labeled antibodies: APC-Cy7 anti-CD45 (30-F11) and BV421 anti-TCRβ ([…]) from BioLegend. Live Dead Aqua (Thermo Fisher Scientific) was stained for viability assay. […] TCRβ^+ cells were sorted with FACSAria II Cell Sorter (BD Bioscience). Splenic T cells were isolated from single cells suspension of spleens using a T Cell Isolation Kit II (Miltenyi Biotec, North Rhine-Westphalia, Germany) according to the manufacturer's guideline.
48-well flat-bottom plates were coated with 5-μg/mL anti-CD3 in PBS and incubated at 4° C. overnight. […]

[1] = system: ischemic AKI in C57BL/6J mice; experiment: Ischemic AKI model (bilateral IRI 30 min): kidney function and histology; format: in vivo, mouse
Procedure: Mice were treated with 1.83 mg/kg of JHU083 or vehicle every other day via intraperitoneal injection and underwent bilateral IRI surgery on day 7 after the initial injection. […] Hollinger et al., 2020. Mice were followed up until 72 h after IRI, and T cells isolated from post-ischemic kidneys were studied (FIG. 14A).
Mice were anesthetized with an intraperitoneal injection of pentobarbital (75 mg/kg; Akorn, Lake Forest, IL). After shaving of abdominal hair, mice were placed onto a thermostatically controlled heating table. Abdominal midline incision was performed, and both renal pedicles were dissected and clamped for 30 min with a microvascular clamp (Roboz Surgical Instrument, Gaithersburg, MD). After 30 min, microvascular clamps were released from renal pedicles and the kidneys were inspected to confirm reperfusion. During the surgery, mice were kept well hydrated with 1 mL of warm sterile 0.9% saline. After being sutured, mice were allowed to recover with free access to chow and water. Sham surgeries were performed identically without clamping of renal pedicles.
Blood samples were obtained at 0, 24, 48, and 72 h after IRI or cisplatin injection through tail vein collection. Plasma creatinine concentration was measured by Cobas Mira Plus automated analyzer system (Roche, Indianapolis, IN) with creatinine reagent (Pointe Scientific Inc, Canton, MI).
At 24 h after IRI and 72 h after cisplatin injection, mice were anesthetized with ketamine (130 mg/kg; VetOne, Boise, ID) and xylazine (7 mg/kg; Akorn) intraperitoneal injection. After exsanguination, kidneys were collected and fixed with 10% buffered formalin followed by paraffin embedding. Tissue sections were stained with hematoxylin and eosin. A renal pathologist scored necrotic tubules in a blinded fashion.
as §1

Q: Which results are given for CCOC(=O)[C@H](CCC(=O)C=[N+]=[N-])NC(=O)[C@@H](N)CC(C)C [JHU083]?
A: glutaminase activities, decrease (glutaminase): 29%; expression of activation and proliferation markers (CD44, CD69, CD25, Ki67) (splenic T cells; 0.25 μM, 0.5 μM, or 1 μM JHU083, 24 h hypoxia followed by reoxygenation, dose-dependent, vs vehicle): reduced expression of activation and proliferation markers; metabolic profiles of treated T cells (splenic T cells; CD3/CD28 stimulation, hypoxia/reoxygenation, FIG. 18B): exhibited unstimulated T cell phenotypes; plasma creatinine at 24 h ([1]; 24 h after IRI, JHU083 1.83 mg/kg i.p. every other day, mean±SEM, vehicle 1.61±0.18, P=0.026): 1.07 ± 0.14 mg/dL; cortical necrotic tubules ([1]; 24 h after IRI, vehicle 6.6±0.9, P=0.039): 4.2±0.5%; medullary necrotic tubules ([1]; 24 h after IRI, vehicle 69.7±3.1, P=0.093): 58.3±5.7%; renal injury ([1]; Example 1, FIG. 7, treated before inducing AKI): attenuated renal injury at 24 hr
